The text below walks through data of PubChem BioAssay AID248 (DTP/NCI, 2004).

The subject of this test is L1210 leukemia ip in BDF1 mice, survival T/C. The experiment in a line: NCI In Vivo Anticancer Drug Screen. Data for tumor model L1210 Leukemia (intraperitoneal) in B6D2F1 (BDF1) mice. Particulars: endpoint: mean survival time, higher = longer survival. Put shortly: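 In this screen, tumor-bearing mice given compound are compared to those given vehicle, and their survival values are reported as a treated-to-control quotient.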

Setting [1] is: dose: 100.0 mg/kg/injection, schedule: Q04DX003 (ip), vehicle: Klucel (hydroxypropylcellulose) (HPC).
The mark [2] stands for this setting: dose: 200.0 mg/kg/injection, schedule: Q04DX003 (ip), vehicle: Klucel (hydroxypropylcellulose) (HPC).
Where [3] appears, read: dose: 400.0 mg/kg/injection, schedule: Q04DX003 (ip), vehicle: Klucel (hydroxypropylcellulose) (HPC).
[4] abbreviates: dose: 100.0 mg/kg/injection, schedule: Q01DX001 (ip), vehicle: carboxymethylcellulose (CMC).
Setting [5] is: dose: 200.0 mg/kg/injection, schedule: Q01DX001 (ip), vehicle: carboxymethylcellulose (CMC).
[6] abbreviates: dose: 400.0 mg/kg/injection, schedule: Q01DX001 (ip), vehicle: carboxymethylcellulose (CMC).
Setting [7] is: dose: 100.0 mg/kg/injection, schedule: Q04DX003 (ip), vehicle: saline with Tween-80.
Where [8] appears, read: dose: 200.0 mg/kg/injection, schedule: Q04DX003 (ip), vehicle: saline with Tween-80.
The mark [9] stands for this setting: dose: 400.0 mg/kg/injection, schedule: Q04DX003 (ip), vehicle: saline with Tween-80.

SMILES strings stand for the structures. “And” between values parts separate entries of the source, which are not always exact repeats. Equal entries are not always repeated. Toxic doses and inconclusive results are not listed.

Turning to `CC1C(O)C(O)CC2COCC21` (stereo not drawn), the T/C was 91 % of control (dose: 100.0 mg/kg/injection, schedule: Q01DX001 (ip), vehicle: saline sonified); 107 % of control (dose: 200.0 mg/kg/injection, schedule: Q01DX001 (ip), vehicle: saline sonified); 113 % of control (dose: 400.0 mg/kg/injection, schedule: Q01DX001 (ip), vehicle: saline sonified).
In the case of `CC12CC(O)C3C(CCC4CC(O)CCC43C)C1CCC2C(=O)CO` (stereo not drawn), the T/C reads like this: (dose: 100.0 mg/kg/injection, schedule: Q01DX001 (sc), vehicle: steriod suspending solution) 102 % of control; (dose: 200.0 mg/kg/injection, schedule: Q01DX001 (sc), vehicle: steriod suspending solution) 104 % of control; (dose: 400.0 mg/kg/injection, schedule: Q01DX001 (sc), vehicle: steriod suspending solution) 102 % of control.
With `CC(C)N=C(N)CSS(=O)(=O)O`, the T/C is 101 % of control (dose: 25.0 mg/kg/injection, schedule: Q04DX002 (ip), vehicle: Klucel (hydroxypropylcellulose) (HPC)); 97 % of control (dose: 50.0 mg/kg/injection, schedule: Q04DX002 (ip), vehicle: Klucel (hydroxypropylcellulose) (HPC)); 101 % of control and 102 % of control (dose: 100.0 mg/kg/injection, schedule: Q04DX002 (ip), vehicle: Klucel (hydroxypropylcellulose) (HPC)).
For `O=C(Nc1cccc(C2=NCCN2)c1)c1cccc(C(=O)Nc2cccc(C3=NCCN3)c2)c1`, the T/C by setting is: (dose: 15.0 mg/kg/injection, schedule: Q01DX Z (ip), vehicle: carboxymethylcellulose (CMC)) 103 % of control; (dose: 31.0 mg/kg/injection, schedule: Q01DX Z (ip), vehicle: carboxymethylcellulose (CMC)) 92 % of control; (dose: 62.0 mg/kg/injection, schedule: Q01DX Z (ip), vehicle: carboxymethylcellulose (CMC)) 92 % of control.
With `CCOC(=O)CNC(=O)OCCN1CCNC1=S`, the T/C runs as follows: (dose: 100.0 mg/kg/injection, schedule: Q01DX009 (ip), vehicle: saline with Tween-80) 98 % of control; (dose: 200.0 mg/kg/injection, schedule: Q01DX009 (ip), vehicle: saline with Tween-80) 100 % of control; (dose: 400.0 mg/kg/injection, schedule: Q01DX009 (ip), vehicle: saline with Tween-80) 101 % of control.
On to `CC(=O)N(NC(=O)c1cccnc1)C(C)=O`, for which the T/C is, setting by setting: (dose: 3.75 mg/kg/injection, schedule: Q01DX015 (oral), vehicle: carboxymethylcellulose (CMC)) 101 % of control; (dose: 7.5 mg/kg/injection, schedule: Q01DX015 (oral), vehicle: carboxymethylcellulose (CMC)) 100 % of control; (dose: 15.0 mg/kg/injection, schedule: Q01DX015 (oral), vehicle: carboxymethylcellulose (CMC)) 100 % of control; (dose: 30.0 mg/kg/injection, schedule: Q01DX015 (oral), vehicle: carboxymethylcellulose (CMC)) 106 % of control; (dose: 62.0 mg/kg/injection, schedule: Q01DX Z (oral), vehicle: carboxymethylcellulose (CMC)) 91 % of control; (dose: 125.0 mg/kg/injection, schedule: Q01DX Z (oral), vehicle: carboxymethylcellulose (CMC)) 91 % of control. Besides, the T/C (dose: 250.0 mg/kg/injection, schedule: Q01DX Z (oral), vehicle: carboxymethylcellulose (CMC)) was 95 % of control.
Regarding `Cc1ccc(S(=O)(=O)COS(=O)(=O)C(F)(F)F)cc1`, the T/C reads like this: under setting [1], 93 % of control; under setting [2], 93 % of control.
For `COc1cc(NS(C)(=O)=O)ccc1Nc1c2ccccc2nc2c(C)cccc12`, the T/C is 100 % of control (dose: 0.62 mg/kg/injection, schedule: Q01DX009 (ip), vehicle: saline); 124 % of control (dose: 1.25 mg/kg/injection, schedule: Q01DX009 (ip), vehicle: Klucel (hydroxypropylcellulose) (HPC)); 111 % of control (dose: 1.25 mg/kg/injection, schedule: Q01DX009 (ip), vehicle: saline); 160 % of control (dose: 2.5 mg/kg/injection, schedule: Q01DX009 (ip), vehicle: saline); 116 % of control (dose: 2.5 mg/kg/injection, schedule: Q01DX009 (sc), vehicle: saline); 121 % of control (dose: 2.5 mg/kg/injection, schedule: Q04DX003 (ip), vehicle: saline). Further, the T/C reads like this: (dose: 5.0 mg/kg/injection, schedule: Q01DX009 (ip), vehicle: Klucel (hydroxypropylcellulose) (HPC)) 118 % of control; (dose: 5.0 mg/kg/injection, schedule: Q01DX009 (ip), vehicle: saline) 163 % of control; (dose: 10.0 mg/kg/injection, schedule: Q01DX009 (ip), vehicle: Klucel (hydroxypropylcellulose) (HPC)) 103 % of control; (dose: 10.0 mg/kg/injection, schedule: Q01DX009 (sc), vehicle: saline) 112 % of control; (dose: 10.0 mg/kg/injection, schedule: Q04DX003 (ip), vehicle: saline) 159 % of control and 164 % of control; (dose: 20.0 mg/kg/injection, schedule: Q04DX003 (ip), vehicle: saline) 213 % of control and 234 % of control.
On to `O=c1[nH]c(SCc2ccc([N+](=O)[O-])cc2)nc2ccccc12`, for which the T/C is 111 % of control under setting [1], 102 % of control under setting [2] and 94 % of control under setting [3].
For the compound `CC(C)c1ncc([N+](=O)[O-])n1C`, the T/C is 97 % of control (dose: 25.0 mg/kg/injection, schedule: Q04DX003 (ip), vehicle: Klucel (hydroxypropylcellulose) (HPC)); 95 % of control (dose: 50.0 mg/kg/injection, schedule: Q04DX003 (ip), vehicle: Klucel (hydroxypropylcellulose) (HPC)); 103 % of control under setting [4]; 102 % of control (dose: 100.0 mg/kg/injection, schedule: Q01DX009 (ip), vehicle: Klucel (hydroxypropylcellulose) (HPC)); 97 % of control and 114 % of control under setting [1]; 101 % of control under setting [5]. The T/C reads like this: under setting [2], 104 % of control; under setting [6], 101 % of control; (dose: 400.0 mg/kg/injection, schedule: Q01DX009 (ip), vehicle: Klucel (hydroxypropylcellulose) (HPC)) 91 % of control; under setting [3], 106 % of control.
As to `CC(CC#N)c1ccc[nH]1` (stereo not drawn), the T/C (dose: 5.0 mg/kg/injection, schedule: Q01DX001 (ip), vehicle: carboxymethylcellulose (CMC)) is 115 % of control; the T/C (dose: 10.0 mg/kg/injection, schedule: Q01DX001 (ip), vehicle: carboxymethylcellulose (CMC)) was 111 % of control; the T/C (dose: 20.0 mg/kg/injection, schedule: Q01DX001 (ip), vehicle: carboxymethylcellulose (CMC)) is 117 % of control; the T/C (dose: 40.0 mg/kg/injection, schedule: Q01DX001 (ip), vehicle: carboxymethylcellulose (CMC)) is 113 % of control; the T/C (dose: 50.0 mg/kg/injection, schedule: Q01DX001 (ip), vehicle: carboxymethylcellulose (CMC)) was 109 % of control; the T/C (dose: 80.0 mg/kg/injection, schedule: Q01DX001 (ip), vehicle: carboxymethylcellulose (CMC)) is 96 % of control. In addition, the T/C was 102 % of control under setting [4] and 107 % of control under setting [5].
For `CN(/N=C/C(O)C(O)C(O)CO)c1ccccc1` (stereo not drawn), the T/C was 95 % of control (dose: 100.0 mg/kg/injection, schedule: Q01DX009 (ip), vehicle: saline); 102 % of control and 98 % of control under setting [7]; 90 % of control (dose: 200.0 mg/kg/injection, schedule: Q01DX009 (ip), vehicle: saline); 93 % of control and 96 % of control under setting [8]; 94 % of control and 96 % of control under setting [9].
Consider `C/C(=N/NC(N)=S)c1cccc(C(F)(F)F)c1`, for which the T/C by setting is: (dose: 37.5 mg/kg/injection, schedule: Q01DX009 (ip), vehicle: Klucel (hydroxypropylcellulose) (HPC)) 97 % of control; (dose: 75.0 mg/kg/injection, schedule: Q01DX009 (ip), vehicle: Klucel (hydroxypropylcellulose) (HPC)) 95 % of control.
For `CC12CC(C(=O)c3ccccc3)C(C)(C1=O)C(c1ccccc1)=C2c1ccccc1` (stereo not drawn), the T/C by setting is: under setting [7], 96 % of control; under setting [8], 89 % of control; under setting [9], 89 % of control.
Regarding `O=C(CCl)N(O)c1ccc(/C=C/c2ccccc2)cc1`, the T/C is, setting by setting: under setting [4], 90 % of control; under setting [5], 88 % of control; under setting [6], 95 % of control.
`CC1(C)C2CCC1(C)C(OC(=O)c1ccc([N+](=O)[O-])cc1)C2OC(=O)c1ccc([N+](=O)[O-])cc1` (stereo not drawn): the T/C was 108 % of control (dose: 75.0 mg/kg/injection, schedule: Q01DX009 (ip), vehicle: saline); 103 % of control (dose: 150.0 mg/kg/injection, schedule: Q01DX009 (ip), vehicle: saline); 97 % of control (dose: 300.0 mg/kg/injection, schedule: Q01DX009 (ip), vehicle: saline).
